These results are taken from patent US8039635B2, “N-hydroxy-4-{5-[4-(5-isopropyl-2-methyl-1,3-thiazol-4-yl) phenoxy]pentoxy} benzamidine 2 ethansulfonic acid salt, process for the preparation thereof and pharmaceutical composition comprising the same” (Dong Wha Pharmaceutical Co., Ltd., priority 2007, dated 2011).

Data set [1] in a line: Evaluation of release rate in buffer solution (pH 1.2), paddle 50 rpm. Conditions: for release rate: buffer pH 1.2, paddle 50 rpm. In kind it is physicochemical. The source says:
The N-hydroxy-4-{5-[4-(5-isopropyl-2-methyl-1,3-thiazol-4-yl)phenoxy]pentoxy}benzamidine 2 ethansulfonic acid salt prepared in Example 1, the N-hydroxy-4-{5-[4-(5-isopropyl-2-methyl-1,3-thiazol-4-yl)phenoxy]pentoxy}benzamidine prepared in Comparative Example 1, and the N-hydroxy-4-{5-[4-(5-isopropyl-2-methyl-1,3-thiazol-4-yl)phenoxy]pentoxy}benzamidine 2 methansulfonic acid salt prepared in Comparative Example 2 were examined for release rate (%) in a buffer solution (pH 1.2) at a paddle rotation speed of 50 rpm.

The test system of another data set is callus / bone fractures. Conditions: rats, vs untreated control; cited from earlier work.
The subject of the next data set is ovalbumin-induced asthma. Conditions: asthmatic mice, cited from earlier work.
Data set [2] in a line: Evaluation of solubility in solvents at room temperature. In kind it is physicochemical. The source says:
The N-hydroxy-4-{5-[4-(5-isopropyl-2-methyl-1,3-thiazol-4-yl)phenoxy]pentoxy}benzamidine 2 ethansulfonic acid salt prepared in Example 1, the N-hydroxy-4-{5-[4-(5-isopropyl-2-methyl-1,3-thiazol-4-yl)phenoxy]pentoxy}benzamidine prepared in Comparative Example 1, and the N-hydroxy-4-{5-[4-(5-isopropyl-2-methyl-1,3-thiazol-4-yl)phenoxy]pentoxy}benzamidine 2 methansulfonic acid salt prepared in Comparative Example 2 were examined for solubility (μg/ml) in various solvents at room temperature.

Data set [3] can be described thus: Pharmacokinetic evaluation (bioavailability) in SD rats. The class given is in vivo. The conditions noted are these: 50 mg/kg. As to the method:
The N-hydroxy-4-{5-[4-(5-isopropyl-2-methyl-1,3-thiazol-4-yl)phenoxy]pentoxy}benzamidine 2 ethansulfonic acid salt prepared in Example 1, and the N-hydroxy-4-{5-[4-(5-isopropyl-2-methyl-1,3-thiazol-4-yl)phenoxy]pentoxy}benzamidine 2 methansulfonic acid salt prepared in Comparative Example 2 were individually administered to SD rats in a dosage of 50 mg/kg. At given time points (0, 0.5, 1, 1.5, 2, 3, 5 and 8 hrs), rats were mildly anesthetized with diethyl ether, and blood samples were collected from the orbital venous plexus and stored at −20° C. until concentration analysis. The plasma samples were mixed with an equal volume of an internal standard substance solution (prepared by dissolving betamethasone in acetonitrile to give a final concentration of 30 μg/ml) with agitation for 1 min, and was centrifuged at 12,000 rpm for 10 min. Active components of the plasma samples were analyzed by HPLC (Model: Waters Module 1). From the obtained data, pharmacokinetic parameters [maximum blood concentration (Cmax) and area under the blood concentration-time curve (AUC)] were calculated by noncompartment analysis using the WinNonlin program (Version 1.0, Scientific Consulting Inc., USA).

A short description of data set [4]: Evaluation of stability under accelerated conditions, HPLC content. Conditions: for change in content (stability in words): 60°C, 2 weeks; for Content: 60°C±2/75% RH±5, cap-opened vial. In kind it is physicochemical. As to the method: The N-hydroxy-4-{5-[4-(5-isopropyl-2-methyl-1,3-thiazol-4-yl)phenoxy]pentoxy}benzamidine 2 ethansulfonic acid salt prepared in Example 1 was placed into a transparent glass vial, and stored at a cap-opened state under accelerated conditions (60° C.±2/75% RH±5) for a period of two weeks. Thereafter, the sample was analyzed by HPLC (Waters Module 1). The analysis was performed using a column packed with an octadecyl-silylated silica gel (Shiseido CAPCELL PAK C18, UG 120, Particle size 5 μm) under conditions: UV detection: 256 nm, injection volume: 10 μl, mobile-phase flow rate: 1.5 mL/min. The amount of the compound was calculated as an area percentage.

Where [5] appears, read: dose-dependent, vs control group.

Molecules are shown by their SMILES. Structures can show the parent of a compound that is named as a salt.

With `Cc1nc(-c2ccc(OCCCCCOc3ccc(C(=N)NO)cc3)cc2)c(C(C)C)s1` [free base, N-hydroxy-4-{5-[4-(5-isopropyl-2-methyl-1,3-thiazol-4-yl)phenoxy]pentoxy}benzamidine], in data set [1] (5 min), the release rate was found to be 1.2%. In data set [1] (10 min), this compound had a release rate of 3.5%. This compound yielded a release rate in data set [1] (15 min) of 7.9%. In data set [1] (30 min), this compound gave a release rate of 21.3%. Besides, in the data set with callus / bone fractures, the “bone mineral content and mechanical strength of callus” value is “significantly enhanced”; the bone tissue density entry is “significantly increased”; the callus volume was “significantly reduced”; the “content of connective and soft tissues in the callus tissue” value is “significantly reduced”. Further, in the data set with ovalbumin-induced asthma (setting [5]), the “number of eosinophils in bronchoalveolar lavage fluid” value is listed as “significantly decreased”; the “total number of leukocytes and number of eosinophils (peripheral blood)” value was “significantly decreased”. In the data set on ovalbumin-induced asthma (oral, 18 days, vs control given sterile distilled water), the “increase in lung weight” value is listed as “suppressed the increase in lung weight”. In addition, in the data set on ovalbumin-induced asthma (vs control group), the alveolar area entry is “significantly increased”.

With `CS(=O)(=O)O.CS(=O)(=O)O.Cc1nc(-c2ccc(OCCCCCOc3ccc(C(=N)NO)cc3)cc2)c(C(C)C)s1` [2 Methansulfonic acid salt, N-hydroxy-4-{5-[4-(5-isopropyl-2-methyl-1,3-thiazol-4-yl)phenoxy]pentoxy}benzamidine 2 methansulfonic acid salt], the solubility in data set [2] (distilled water, room temperature) is reported as 3,535 μg/ml. Also, the release rate in data set [1] (5 min) was 5.3%; in data set [1] (10 min) it was 13.9%; in data set [1] (15 min) it was 20.1%; in data set [1] (30 min), 34.3%. The AUC (area under the blood concentration-time curve) in data set [3] (SD rats) is 8970 ± 3090 ng·h/mL. In addition, the “Cmax (maximum blood concentration)” value in data set [3] (SD rats) came to 1792 ± 912 ng/mL. Further, the “Tmax (time to reach maximum plasma concentration)” value in data set [3] (SD rats) was 3.00 ± 1.63 h.

Regarding `Cc1nc(-c2ccc(OCCCCCOc3ccc(C(=N)NO)cc3)cc2)c(C(C)C)s1` [2 Ethansulfonic acid salt, N-hydroxy-4-{5-[4-(5-isopropyl-2-methyl-1,3-thiazol-4-yl)phenoxy]pentoxy}benzamidine 2 ethansulfonic acid salt], the solubility in data set [2] (water) turned out to be 4420 µg/mL. The release rate in data set [1] (5 min) amounted to 14.8%; in data set [1] (10 min) it was 20.5%; in data set [1] (15 min), 24.2%; in data set [1] (30 min), 31.3%. In addition, the results for the “release rate, fold higher than 2 methanesulfonic acid salt” value in data set [1] (after 5 min), in data set [1] (after 10 min) and in data set [1] (after 15 min) were “about 2.8 fold”, “about 1.4 fold” and “about 1.2 fold”, respectively. The results for the “change in content (stability in words)” value in data set [4] and in data set [4] (listed as 2 ethanesulfonic acid salt) were “no change in content” and “no change in its content”, respectively. In addition, the Content in data set [4] (after 1 week) is reported as 99.88%; in data set [4] (after 2 weeks), 99.86%; in data set [4] (early stage), 100.00%. The compound also displayed an AUC in data set [3] (SD, rat, in vivo) of 10800 ± 833 ng·h/mL. Further, the “AUC, fold higher than 2 methanesulfonic acid salt” value in data set [3] (SD, rat, in vivo) was “about 1.2 fold”. For the same compound, the Cmax in data set [3] (SD, rat, in vivo) came out at 2360 ± 183 ng/mL. Besides, the “Cmax, fold higher than 2 methanesulfonic acid salt” value in data set [3] (SD, rat, in vivo) was 1.3 fold. For the same compound, the Tmax in data set [3] (SD, rat, in vivo) worked out at 2.13 ± 0.63 h. For the same compound, the “Tmax, fold faster than 2 methanesulfonic acid salt” value in data set [3] (SD, rat, in vivo) came out at 1.4 fold.

By solubility is commonly meant the dissolved amount per volume that the medium holds. The low end stands for little dissolved substance, the high end for much dissolved substance. What is called AUC is concentration integrated over time. Higher therefore signals more exposure. Broadly, the Cmax is the highest concentration seen after dosing. A word on the Tmax: it is the time at which the peak concentration occurs.
